{"source": "BindingDB's records for patent US20240174696", "about": "(Genentech, 2024)", "molecular_target": "T1, Serine/threonine-protein kinase LATS2 (Homo sapiens, UniProt Q9NRM7)", "T1 sequence (Q9NRM7 whole entry)": "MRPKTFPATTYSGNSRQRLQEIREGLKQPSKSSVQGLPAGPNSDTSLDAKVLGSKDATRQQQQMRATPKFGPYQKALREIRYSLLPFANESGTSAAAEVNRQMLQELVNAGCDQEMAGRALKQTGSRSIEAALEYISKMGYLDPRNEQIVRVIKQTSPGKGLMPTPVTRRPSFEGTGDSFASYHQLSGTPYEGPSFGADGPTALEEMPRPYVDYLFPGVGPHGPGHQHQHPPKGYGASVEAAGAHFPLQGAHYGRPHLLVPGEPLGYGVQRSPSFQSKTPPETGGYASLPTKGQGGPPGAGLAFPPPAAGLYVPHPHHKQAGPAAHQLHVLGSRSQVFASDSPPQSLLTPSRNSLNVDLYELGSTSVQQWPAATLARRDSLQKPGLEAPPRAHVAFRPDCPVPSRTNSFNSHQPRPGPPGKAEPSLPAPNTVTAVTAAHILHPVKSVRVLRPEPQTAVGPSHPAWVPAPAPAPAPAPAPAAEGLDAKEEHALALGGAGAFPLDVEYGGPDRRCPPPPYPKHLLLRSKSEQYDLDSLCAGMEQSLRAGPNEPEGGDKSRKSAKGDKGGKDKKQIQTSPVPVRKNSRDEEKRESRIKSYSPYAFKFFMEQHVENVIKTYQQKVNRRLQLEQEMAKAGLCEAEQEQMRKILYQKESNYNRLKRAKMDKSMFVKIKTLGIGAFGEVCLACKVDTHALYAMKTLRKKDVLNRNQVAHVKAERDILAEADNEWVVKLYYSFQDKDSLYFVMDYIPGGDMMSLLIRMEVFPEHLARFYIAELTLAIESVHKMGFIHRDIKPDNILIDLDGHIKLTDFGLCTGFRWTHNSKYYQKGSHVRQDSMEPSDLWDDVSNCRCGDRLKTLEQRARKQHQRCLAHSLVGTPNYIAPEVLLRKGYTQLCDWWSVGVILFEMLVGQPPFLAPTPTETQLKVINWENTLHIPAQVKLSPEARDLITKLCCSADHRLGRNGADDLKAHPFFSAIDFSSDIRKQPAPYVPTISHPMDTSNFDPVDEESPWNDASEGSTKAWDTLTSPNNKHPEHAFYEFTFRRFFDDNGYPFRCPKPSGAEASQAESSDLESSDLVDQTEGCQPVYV", "assay": "Standard LATS2 HTRF Assay", "protocol": "Human LATS2 catalytic domain which contains the amino acids G553-V1088 (accession NP_055387) was purified in-house. The LATS2 catalytic domain was co-purified with Mob1b (accession NP_775739). The LATS2 biochemical HTRF assay was performed using the HTRF KinEASE-STK S1 Kit (Cisbio, Cat #62ST1PEC), following the protocol from the manufacturer. Compounds were dispensed by the Echo Liquid Handler (Labcyte) into a white 384-well plate (PerkinElmer, Cat #6008289). 3 uL of 2×LATS2 enzyme solution was added to the compounds, following by a 10 minute incubation at room temperature. Then, 2×ATP and STK S1 peptide solution was added to initiate the one hour enzyme reaction at room temperature. The final condition of the reaction was 0.2 nM LATS2, 50 μM ATP, 0.5 μM STK S1 peptide in 50 mM HEPES pH7.2, 10 mM MgCl2, 0.1% BGG, 0.005% Brij-35, 1 mM DTT. The reaction was quenched by adding 6 uL of the detection mixture which contained Streptavidin XL665 and STK Antibody-Cryptate (Cisbio), incubate for 1 hour at room temperature. The HTRF (665 nm/620 nm) signal was read on the Envision plater reader (PerkinElmer). The IC50 values were determined by fitting the % inhibition with a nonlinear four-parameter logistical equation. The Ki values were calculated using the Cheng-Prusoff equation for a competitive inhibitor, IC50═Ki (1+S/Km)+M [E] with ATP Km for LATS2=105 μM.", "data": [{"smiles": "COc1cncc2nc(-c3ccncc3)nc(N3CCC4(CCN(C)C4)CC3)c12", "note": "[US20240174696, Compound 252]", "values": [{"measurement": "Ki", "value": 0.022, "unit": "nM"}]}]}
